Data set [1] is described as follows: Determination of Efflux-Ratio (ER) in Caco-2 cells. As to conditions: human, Caco-2, pH 7.4.
Method: Determination of Efflux-Ratio (ER) in Caco-2 Cells
The efflux ratio of the test compounds was determined in Caco-2 human epithelial colorectal adenocarcinoma cell line (TC7 clone) using calculation of apparent permeability (Papp). Cell monolayers were differentiated in vitro for 14 days before the experiment. Subsequently, the test compound (in HBSS pH 7.4 at 1 μM final concentration) was applied on the donor side while HBSS buffer (pH 7.4) was added to the receiver wells. […] The plate was then incubated in a 5% CO2 incubator (37° C., 100% humidity). At the end of the 2 hours incubation period, 50 μL sample was removed from both donor and receiver wells and diluted 1:1 with equal volumes of acetonitrile for LC-MS/MS analysis. The LC-MS/MS analysis used a one-point calibration method from a 1 μM standard solution diluted 1:1 with equal volume of acetonitrile (consistent to the test samples).
The data was used to calculate the apparent permeabilities of the compounds in both apical to basolateral (Papp,AB) and basolateral to apical (Papp,BA) directions at 1 μM concentration in duplicate. The Papp values were calculated from the concentrations in the donor and receiver compartments using the following formula:
Efflux ratio was calculated according to the following formula:
Data set [2] concerns the target T1, c-Kit(V654A) (Homo sapiens, UniProt P10721, V654A).
T1 construct: recombinant human c-Kit, amino acids 544-end containing the V654A mutation; GST (N)
The experiment in a line: c-Kit(V654A) assay (33P-ATP filter binding kinase assay). Format: biochemical. Conditions: recombinant human c-Kit aa 544-end V654A, ATP 200 μM. In short, it runs like this:
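Radiometric filter-binding read-out: substrate 33P incorporation counted by scintillation after P30 filtermat washes in 75 mM phosphoric acid and methanol. Enzyme: N-GST recombinant human c-Kit aa 544-end carrying V654A.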

Data set [3] concerns the target T2, GIST430/654 cell line expressing mutated constitutively active cKIT receptor tyrosine kinase (Δ560-576 deletion and V654A point mutation) (Homo sapiens, UniProt P10721, DEL560-576/V654A).
T2 construct: endogenous in cells; host or cells: GIST430/654 cells
The experiment in a line: Cellular cKIT autophosphorylation (phospho-Y307-cKIT, Luminex bead assay) in GIST430/654 cells. Format: cell-based. Conditions: compounds 45 min, read-out: GIST 430/654 IC50. In short, it runs like this:
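GIST430 (Δ560-576) and imatinib-resistant GIST430/654 (plus V654A; grown with 100 nM imatinib) cells were plated in IMDM/15% FCS and treated next day with serially diluted compound for 45 min. Lysates were captured on anti-total-cKIT Luminex beads overnight at 4 °C and probed for phospho-Y307. IC50 was taken from percent of 0.3% DMSO control.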

For data set [4], the target named is T3, GIST430 cell line expressing constitutive active cKIT receptor tyrosine kinase (Δ560-576 deletion) (Homo sapiens, UniProt P10721, DEL560-576).
T3 construct: endogenous in cells; host or cells: GIST430 cells
T3 sequence (P10721 with tags, fused parts or gaps DEL560-576): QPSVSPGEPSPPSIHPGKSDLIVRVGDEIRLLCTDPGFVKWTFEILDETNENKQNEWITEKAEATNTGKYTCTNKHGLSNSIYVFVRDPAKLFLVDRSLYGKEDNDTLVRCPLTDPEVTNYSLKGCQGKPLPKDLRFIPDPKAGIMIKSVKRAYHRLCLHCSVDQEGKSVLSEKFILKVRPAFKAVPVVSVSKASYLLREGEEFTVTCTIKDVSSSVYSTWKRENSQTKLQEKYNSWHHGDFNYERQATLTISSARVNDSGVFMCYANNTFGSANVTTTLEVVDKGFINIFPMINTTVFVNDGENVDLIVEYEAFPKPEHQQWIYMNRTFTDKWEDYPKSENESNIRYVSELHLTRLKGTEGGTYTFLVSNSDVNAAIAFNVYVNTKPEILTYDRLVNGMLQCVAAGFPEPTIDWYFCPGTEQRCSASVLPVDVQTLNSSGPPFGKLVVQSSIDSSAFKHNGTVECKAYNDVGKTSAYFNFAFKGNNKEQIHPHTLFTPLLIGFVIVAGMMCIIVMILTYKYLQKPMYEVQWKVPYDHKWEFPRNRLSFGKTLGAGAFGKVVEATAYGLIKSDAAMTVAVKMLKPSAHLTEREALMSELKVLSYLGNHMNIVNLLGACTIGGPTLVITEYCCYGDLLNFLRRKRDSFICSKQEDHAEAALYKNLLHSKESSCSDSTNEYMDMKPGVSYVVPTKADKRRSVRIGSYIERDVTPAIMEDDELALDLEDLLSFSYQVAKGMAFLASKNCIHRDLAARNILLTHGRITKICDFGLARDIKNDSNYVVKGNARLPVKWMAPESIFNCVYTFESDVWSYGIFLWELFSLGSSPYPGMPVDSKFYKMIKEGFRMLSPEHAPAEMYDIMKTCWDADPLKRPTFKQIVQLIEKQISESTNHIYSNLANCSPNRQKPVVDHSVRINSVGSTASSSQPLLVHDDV
The experiment in a line: Cellular cKIT autophosphorylation (phospho-Y307-cKIT, Luminex bead assay) in GIST430 cells. Format: cell-based. Conditions: for pIC50: cKIT autophosphorylation, GIST430 cells, compounds 45 min, read-out: GIST 430 IC50. As for the experimental part: Assay Principle for Cellular Testing of cKIT Mutant Inhibitors
The GIST430 cell line expressing constitutive active cKIT receptor tyrosine kinase (Δ560-576 deletion) and the Imatinib resistant GIST430/654 cell line expressing mutated constitutively active cKIT receptor tyrosine kinase (Δ560-576 deletion and V654A point mutation) were employed for assessing cellular potency of compounds. Cellular activity of mutant cKIT was determined by the degree of cKIT autophosphorylation at tyrosine 307 using a Luminex-based bead assay. GIST430 cells were plated with 22,000 cells per well of a 96-well plate in 100 μl medium (85% IMDM/15% FCS) and GIST430/654 cells were plated with 25,000 cells per well of a 96-well plate in 100 μl medium (85% IMDM/15% FCS supplemented with 100 nM Imatinib). At the following day compounds were added in a serial dilution for 45 min. Then, cells were lysed with 90 μl lysis buffer (20 mM Hepes pH 7.5, 200 mM NaCl, 1.5 mM MgCl2×6H2O, 0.4 mM EDTA, 1% Triton-X-100, 1% Phosphatase-Inhibitor II, 20 mM β-Glycerolphosphat, 0.1% Protease-Inhibitor Cocktail III, 0.01% Benzonase) and lysates were cleared by centrifugation through a 96-well filter plate (0.65 μm). Samples were incubated with Luminex-beads which were coupled with an anti-total cKIT antibody overnight at 4° C. under gentle agitation. For detection of phospho-Y307-cKIT a phosphospecific antibody and a species-specific PE-labeled secondary antibody were added. The amount of phospho-Y307-cKIT was determined in a Luminex 200 instrument measuring 100 events per well within 60 seconds.
Counts from samples treated with compounds were calculated as percent of control from solvent treated (0.3% DMSO) samples. Dose-response curves were fitted and IC50 values were determined using Genedata Screener software.

pIC50: −log10 of the molar value. Structures can show the parent of a compound that is named as a salt. Where two headings read alike, the source gives them in different places.

T1 sequence (P10721 544-976 V654A): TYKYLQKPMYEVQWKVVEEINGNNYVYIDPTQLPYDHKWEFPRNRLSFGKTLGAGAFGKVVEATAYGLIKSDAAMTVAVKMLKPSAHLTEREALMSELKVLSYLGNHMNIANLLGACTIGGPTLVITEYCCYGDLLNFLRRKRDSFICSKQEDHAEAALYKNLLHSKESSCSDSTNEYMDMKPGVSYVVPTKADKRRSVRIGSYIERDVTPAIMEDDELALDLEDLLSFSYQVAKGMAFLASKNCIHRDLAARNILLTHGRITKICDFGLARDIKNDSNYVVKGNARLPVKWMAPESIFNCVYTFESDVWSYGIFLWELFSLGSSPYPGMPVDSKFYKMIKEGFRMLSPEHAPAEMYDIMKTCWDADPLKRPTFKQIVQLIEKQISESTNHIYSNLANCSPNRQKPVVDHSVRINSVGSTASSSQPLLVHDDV
T2 sequence (P10721 with tags, fused parts or gaps DEL560-576/V654A): as the sequence (P10721 with tags, fused parts or gaps DEL560-576) above, with V612A counted along it

Take `CC1(F)CCN(CCCOc2ccn3c(-c4cc(NCc5ccc(-c6cocn6)cc5)ncn4)cnc3c2)CC1` [A263, 6-{7-[3-(4-fluoro-4-methylpiperidin-1-yl)propoxy]imidazo[1,2-a]pyridin-3-yl}-N-{[4-(1,3-oxazol-4-yl)phenyl]methyl}pyrimidin-4-amine]: the efflux ratio (usually a quotient of directional permeabilities that is used to spot active efflux) at 2 h, 1 μM in data set [1] is under 15. Moreover, the figures for the pIC50 in data set [2], in data set [3] and in data set [4] were 8.64, 7.18 and 8.37, respectively.
As for `Cc1cc(N2CC[C@H](F)C2)ncc1CNc1cc(-c2cnc3ccccn23)ncn1` [A155, [6-((S)-3-fluoro-pyrrolidin-1-yl)-4-methyl-pyridin-3-ylmethyl]-(6-imidazo[1,2-a]pyridin-3-yl-pyrimidin-4-yl)-amine], the results for the pIC50 in data set [2], in data set [3] and in data set [4] were 7.04, 4.52 and 7.29, respectively.
In the same order, the values of `COCCOc1ccn2c(-c3cc(NCc4ccc(-c5ccn(C)n5)cc4)ncn3)cnc2c1` [A7, 6-[7-(2-methoxyethoxy)imidazo[1,2-a]pyridin-3-yl]-N-{[4-(1-methyl-1H-pyrazol-3-yl)phenyl]methyl}pyrimidin-4-amine] are 8.33, 6.52 and 8.21.
As to `F[C@H]1CCN(c2ccc(CNc3cc(-c4cnc5ccccn45)ncn3)cn2)C1` [A148, N-({6-[(3S)-3-fluoropyrrolidin-1-yl]pyridin-3-yl}methyl)-6-{imidazo[1,2-a]pyridin-3-yl}pyrimidin-4-amine], in data set [1], the efflux ratio at 2 h, 1 μM was under 15. The pIC50 in data set [2] is 8.31; in data set [3], 6.66; in data set [4], 8.14.
As for `CNC1CN(c2ccn3c(-c4cc(NCc5ccc(-c6cnn(C)c6)cc5)ncn4)cnc3c2)C1` [A268, N-{[4-(1-methyl-1H-pyrazol-4-yl)phenyl]methyl}-6-{7-[3-(methylamino)azetidin-1-yl]imidazo[1,2-a]pyridin-3-yl}pyrimidin-4-amine], the efflux ratio at 2 h, 1 μM in data set [1] is under 15. The pIC50 in data set [2] was 7.96; in data set [3], 6.85; in data set [4] it was 8.00.
As for `CO[C@@H]1CCN(c2ccc(CNc3cc(-c4cnc5ccccn45)ncn3)cn2)C1` [A146, 6-{imidazo[1,2-a]pyridin-3-yl}-N-({6-[(3R)-3-methoxypyrrolidin-1-yl]pyridin-3-yl}methyl)pyrimidin-4-amine], the efflux ratio at 2 h, 1 μM in data set [1] is under 15. The figures for the pIC50 in data set [2], in data set [3] and in data set [4] were 8.15, 6.47 and 7.32, respectively.
`COc1ccn2c(-c3ncnc(NCc4ccc(-c5cnn(C)c5)cc4)c3F)cnc2c1` [A97, 5-fluoro-6-{7-methoxyimidazo[1,2-a]pyridin-3-yl}-N-{[4-(1-methyl-1H-pyrazol-4-yl)phenyl]methyl}pyrimidin-4-amine]: the pIC50 was 8.18 in data set [2], 6.64 in data set [3] and 8.06 in data set [4].
As for `COc1ccn2c(-c3cc(NCc4ccc(-c5cccnc5)cc4)ncn3)cnc2c1` [A6, 6-{7-methoxyimidazo[1,2-a]23yridine-3-yl}-N-{[4-(23yridine-3-yl)phenyl]methyl}pyrimidin-4-amine], the pIC50 is 8.19 in data set [2], 6.46 in data set [3] and 7.70 in data set [4].
Take `Cn1ncc(-c2ccc(CNc3cc(-c4cnc5cc(OCCO)ccn45)ncn3)cc2)n1` [A173, 2-({3-[6-({[4-(2-methyl-2H-1,2,3-triazol-4-yl)phenyl]methyl}amino)pyrimidin-4-yl]imidazo[1,2-a]pyridin-7-yl}oxy)ethan-1-ol]: the efflux ratio at 2 h, 1 μM in data set [1] is under 15. For the same compound, the pIC50 in data set [2] is 8.43; in data set [3] it was 7.24; in data set [4] it was 7.66.
The matching figures for `COc1ccn2c(-c3cc(NCc4ccc(-c5coc(C)n5)cc4)ncn3)cnc2c1` [A42, 6-{7-methoxyimidazo[1,2-a]pyridin-3-yl}-N-{[4-(2-methyl-1,3-oxazol-4-yl)phenyl]methyl}pyrimidin-4-amine]: under 15, 8.89, 7.23 and 8.74.
Take `Cn1ncc(-c2ccc(CNc3cc(-c4cnc5cc(OCCCN6CCN(C7COC7)CC6)ccn45)ncn3)cc2)n1` [A185, [4-(2-methyl-2H-[1,2,3]triazol-4-yl)-benzyl]-(6-{7-[3-(4-oxetan-3-yl-piperazin-1-yl)-propoxy]-imidazo[1,2-a]pyridin-3-yl}-pyrimidin-4-yl)-amine]: in data set [1], the efflux ratio at 2 h, 1 μM was under 15. For the same compound, the pIC50 is 8.17 in data set [2], 7.23 in data set [3] and 8.89 in data set [4].
In the case of `CN1CCC(COc2ccn3c(-c4cc(NCc5ccc(-c6cnn(C)c6)cc5)ncn4)cnc3c2)CC1` [A62, {6-[7-(1-methyl-piperidin-4-ylmethoxy)-imidazo[1,2-a]pyridin-3-yl]-pyrimidin-4-yl}-[4-(1-methyl-1H-pyrazol-4-yl)-benzyl]-amine], the efflux ratio at 2 h, 1 μM in data set [1] is under 15. For the same compound, the values for the pIC50 in data set [2], in data set [3] and in data set [4] were 8.39, 7.49 and 8.43, respectively.
For `Cn1cc(-c2ccc(CNc3cc(-c4cnc5cc(OCCCN6CCCC6)ccn45)ncn3)cc2)cn1` [A75 hydrochloride, [4-(1-methyl-1H-pyrazol-4-yl)-benzyl]-{6-[7-(3-pyrrolidin-1-yl-propoxy)-imidazo[1,2-a]pyridin-3-yl]-pyrimidin-4-yl}-amine hydrochloride], the pIC50 in data set [2] is 8.24. Besides, the IC50 – broadly, the midpoint of a concentration-inhibition curve – in data set [4] (cell line not specified (GIST), read-out: IC50 [M] GIST) came out at 2.1e-09 M.
Turning to `COCCOc1ccn2c(-c3cc(NCc4ccc(-c5cnn(C)c5)nc4)ncn3)cnc2c1` [A11, 6-[7-(2-methoxyethoxy)imidazo[1,2-a]pyridin-3-yl]-N-{[6-(1-methyl-1H-pyrazol-4-yl)pyridin-3-yl]methyl}pyrimidin-4-amine], the figures for the pIC50 in data set [2], in data set [3] and in data set [4] were 7.82, 6.77 and 8.15, respectively.
Turning to `Cn1cc(-c2ccc(CNc3cc(-c4cnc5cc(OCCCN6CCC(C)(F)CC6)ccn45)ncn3)cc2)cn1` [A262, 6-{7-[3-(4-fluoro-4-methylpiperidin-1-yl)propoxy]imidazo[1,2-a]pyridin-3-yl}-N-{[4-(1-methyl-1H-pyrazol-4-yl)phenyl]methyl}pyrimidin-4-amine], the efflux ratio at 2 h, 1 μM in data set [1] is under 15. Besides, the pIC50 in data set [2] is 8.30; in data set [3], 7.14; in data set [4], 8.36.
With `CO[C@H]1CCN(c2ccc(CNc3cc(-c4cnc5ccccn45)ncn3)cn2)C1` [A151, 6-{imidazo[1,2-a]pyridin-3-yl}-N-({6-[(3S)-3-methoxypyrrolidin-1-yl]pyridin-3-yl}methyl)pyrimidin-4-amine], the efflux ratio at 2 h, 1 μM in data set [1] is under 15. For the same compound, the pIC50 is 7.82 in data set [2], 6.52 in data set [3] and 8.00 in data set [4].
As to `COCCOc1ccn2c(-c3cc(NCc4ccc(-c5cccnc5)cc4)ncn3)cnc2c1` [A5, 6-[7-(2-methoxyethoxy)imidazo[1,2-a]23yridine-3-yl]-N-{[4-(23yridine-3-yl)phenyl]methyl}pyrimidin-4-amine], the pIC50 in data set [2] is 8.09; in data set [3], 6.77; in data set [4], 8.28.
Consider `c1ccn2c(-c3cc(NCc4ccc(-n5cccn5)cc4)ncn3)cnc2c1` [A9, (6-Imidazo[1,2-a]23yridine-3-yl-pyrimidin-4-yl)-(4-pyrazol-1-yl-benzyl)-amine], for which the pIC50 in data set [2] is 8.66; in data set [3], 6.72; in data set [4], 8.62.

The values above are taken from US12655142B2 (Merck Patent GmbH, priority 2019, dated 2026).
